Data on 5 molecules can be found in BindingDB's records for doi:10.1111/cbdd.12812 (Yueyang Vocational Technical College, 2016).

One may read the IC50 as the concentration that gives 50% inhibition. Read a low IC50 as greater potency in that assay.

The target of the assay is T1, Aromatase (Homo sapiens, UniProt P11511).
T1 sequence (P11511 whole entry): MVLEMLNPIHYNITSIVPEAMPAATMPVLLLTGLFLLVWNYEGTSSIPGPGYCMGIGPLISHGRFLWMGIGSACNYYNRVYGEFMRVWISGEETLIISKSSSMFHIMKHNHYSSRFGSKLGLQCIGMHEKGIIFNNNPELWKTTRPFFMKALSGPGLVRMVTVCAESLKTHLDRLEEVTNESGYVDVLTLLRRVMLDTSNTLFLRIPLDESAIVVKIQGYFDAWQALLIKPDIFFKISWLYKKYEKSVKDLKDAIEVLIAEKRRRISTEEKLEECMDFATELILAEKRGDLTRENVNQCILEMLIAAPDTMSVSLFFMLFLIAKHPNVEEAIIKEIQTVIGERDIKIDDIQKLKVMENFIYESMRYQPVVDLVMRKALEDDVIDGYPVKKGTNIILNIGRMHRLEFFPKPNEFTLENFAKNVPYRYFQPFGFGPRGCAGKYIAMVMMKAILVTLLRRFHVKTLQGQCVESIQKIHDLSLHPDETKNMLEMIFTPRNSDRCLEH
Put plainly: Aromatase Inhibition Activity Assay. The following applies: pH 7.5; 37 °C. As to the method: Briefly, concentrated stock solutions of test compounds were prepared in acetonitrile. Hundred microliters of samples containing serial dilutions of test compounds (dilution factor of 3 between samples) and cofactor mixture (0.4 U/mL glucose-6-phosphate dehydrogenase; 16.2 μm NADP+; 825 μm MgCl2; 825 μm glucose-6- phosphate; 50 μm citrate buffer, pH 7.5) was prepared in a 96-well plate. […] The plate was covered and incubated for 30 min at 37 °C. Seventy-five microliters of 0.5 m Tris base was then added to stop the reaction, and the fluorescence of the formed de-methylated MFC was measured with a plate reader (Spectra Max Gemini; Molecular Devices, Sunnyvale, CA, USA).
Take `Cc1c(C(=O)c2sc(=N)sc2Nc2ccccc2)c(=O)n(-c2ccccc2)n1C` [4-[4-(1,2-Dihydro-1,5-dimethyl-2-phenyl-3-oxo-3H-pyrazol-4-ylcarbonyl)]-5-phenylamino-1,3-dithiole-2-imine (7)]: the IC50 came to 4.6 nM. Molecule `Cc1c(-c2csc(O)n2)c(=O)n(-c2ccccc2)n1C` [2-Hydroxy-4-([4-(1,2-dihydro-1,5-dimethyl-2-phenyl-3-oxo-3H-pyrazol-4-yl)thiazole (25)] yielded an IC50 of 3.5 nM.

In turn, `Cc1c(-c2csc(Cl)n2)c(=O)n(-c2ccccc2)n1C` [2-Chloro-4-[4-(1,2-dihydro-1,5-dimethyl-2-phenyl-3-oxo-3H-pyrazol-4-yl)thiazole (26)] showed an IC50 of 3.3 nM.

Take `Cc1c(C(=O)c2nn3c(nc(=O)c4ccccc43)s2)c(=O)n(-c2ccccc2)n1C` [2-[4-(1,2-Dihydro-1,5-dimethyl-2-phenyl-3-oxo-3H-pyrazol-4-yl]-1,3,4-thiazolo[3,2-a]-1,3-quinazolin-2-one (10b)]: the midpoint of inhibition, the IC50, lay at 3.9 nM.

Turning to `Cc1c(C(=O)CSC#N)c(=O)n(-c2ccccc2)n1C` [1,2-Dihydro-1,5-dimethyl-2-phenyl-4-thiocyanatoacetyl-3H-pyrazol-3-one (2)], the midpoint of inhibition, the IC50, lay at 6.7 nM.
